Assay [1] has as its system trypsin. In words: Off-target fluorogenic substrate assay, trypsin. The settings on record: across the range of concentrations studied, vs chymotrypsin and NE. The class given is biochemical. The method, then: (§1) Recombinant protease activities were assessed using the cognate fluorogenic substrates (final concentration 50 μM) as follows: trypsin (Cbz-Gly-Gly-Arg-AMC), neutrophil elastase (MeO-Suc-Ala-Ala-Pro-Val-AMC) and chymotrypsin (Suc-Ala-Ala-Pro-Phe-AMC). The assay in the presence or absence of protease inhibitors at a range of final concentrations was performed using a standard microtitre plate format. Substrate hydrolysis, at 37°C, was monitored over a 60 min period by measuring the rate of increase in fluorescence (at λex 360 nm, λem 480 nm) using a FLUOstar Optima microplate reader (BMG Labtech).

The next assay concerns chymotrypsin. In words: Off-target fluorogenic substrate assay, chymotrypsin. The class given is biochemical. The settings on record: 50 μM (highest concentration tested). As to the method:
as §1

Another assay has as its target T1, neutrophil elastase (Homo sapiens, UniProt P08246).
T1 construct: purchased Calbiochem
T1 sequence (P08246 30-267): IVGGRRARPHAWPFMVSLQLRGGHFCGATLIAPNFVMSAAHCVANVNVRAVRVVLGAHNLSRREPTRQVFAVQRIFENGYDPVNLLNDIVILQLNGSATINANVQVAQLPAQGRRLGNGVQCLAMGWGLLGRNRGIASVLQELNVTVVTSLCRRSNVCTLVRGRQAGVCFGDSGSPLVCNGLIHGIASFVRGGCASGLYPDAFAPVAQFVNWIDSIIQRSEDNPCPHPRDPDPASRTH
In words: Off-target fluorogenic substrate assay, neutrophil elastase. The settings on record: 50 μM (highest concentration tested); read-out: inhibition of NE (decrease in activity) relative to controls. The class given is biochemical. The method, then:
as §1

Another assay has as its target T2, matriptase (Homo sapiens, UniProt Q9Y5Y6).
T2 construct: purchased R and D Systems
T2 sequence (Q9Y5Y6 615-855 limits assumed): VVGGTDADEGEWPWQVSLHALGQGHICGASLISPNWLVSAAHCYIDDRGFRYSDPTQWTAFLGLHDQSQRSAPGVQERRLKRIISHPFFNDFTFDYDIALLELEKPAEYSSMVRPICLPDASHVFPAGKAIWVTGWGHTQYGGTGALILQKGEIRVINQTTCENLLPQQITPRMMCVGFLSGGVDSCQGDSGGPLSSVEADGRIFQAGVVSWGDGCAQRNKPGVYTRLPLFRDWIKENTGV
In words: Activity-based probe labelling of matriptase. The class given is binding. The settings on record: 30 min, 37°C; band at 26 kDa. As to the method:
(§2) Samples of recombinant protease (trypsin, human airway trypsin-like protease (HAT), matriptase, thrombin or neutrophil elastase, as indicated in the relevant figure legends) were treated with putative ABPs at a concentration of 50 μM, for 30 min, at 37°C. A control sample was prepared by treating recombinant protease with solvent control only. A further sample was prepared where Cbz-Arg^P(OPh)2 was added 30 min prior to the addition of the ABP under examination. […] All treated samples were then denatured with SDS-containing reducing treatment buffer (10 min at 95°C), followed by resolution by SDS-PAGE and subjected to Western blotting. Note, only stable covalent bonds between the ABP and protease active site would survive the harsh denaturing conditions involved in the resolution process. Resolved proteins were then transferred on to nitrocellulose membrane and labelled with streptavidin-HRP. The ABP-protease complex was then visualised following treatment with Luminata Forte HRP substrate.

Assay [2] concerns trypsin. In words: Activity-based probe labelling of trypsin (SDS-PAGE, Western blot, streptavidin-HRP). The class given is binding. The conditions noted are these: probe 50 μM, 30 min, 37°C. The method, then: as §2
Assay [3] addresses T3, human airway trypsin-like protease (HAT) (Homo sapiens, UniProt O60235).
T3 construct: purchased R and D Systems
Kind of assay: Activity-based probe labelling of HAT. The conditions noted are these: 30 min, 37°C; band at 25 kDa. The class given is binding. As to the method: as §2

In a further assay the target is human trypsin (Homo sapiens, UniProt P07477). Kind of assay: Determination of inhibitor constants against trypsin (progress curves, Cbz-Gly-Gly-Arg-AMC). The class given is biochemical. The settings on record: PBS pH 7.4, 37°C, ±S.E.M., three determinations. The method, then: as §1
A broad range of inhibitor concentrations were prepared from a 10 mM stock solution of the five test compounds (NAP851, NAP966, NAP987, NAP884 and NAP858) in N,N-dimethyformamide (DMF). The fluorogenic substrate, Cbz-Gly-Gly-Arg-AMC, was diluted in assay buffer (PBS, pH 7.4) and used at a fixed concentration of 50 μM. All inhibition assays were performed in microtitre plates maintained at 37°C in a final volume of 100 μL. The reaction was initiated by the addition of human trypsin (0.01 μg/well) and the rate of substrate hydrolysis continuously recorded at λex 360 nm, λem 480 nm using a FLUOstar Optima microplate reader (BMG Labtech). The resultant inhibition progress curve for the putative protease inhibitors were analysed according to the kinetic models developed by Tian and Tsou ([Tian and Tsou, 1982]) and Walker and Elmore ([Walker and Elmore, 1984]), for irreversible inhibitors, using GRAFIT (Erithacus Software) as described previously ([Ferguson et al., 2016]).

For assay [4], the system named is trypsin-like proteases in American cockroach extract. Kind of assay: ABP of American cockroach extract. The conditions noted are these: probe 50 μM, 30 min, 37°C. The class given is binding, Periplaneta americana. The method, then: (§3) Cockroach extract was probed with NAP858 (50 μM) (± heat inactivation at 95°C, for 10 min), for 30 min, at 37°C. Samples were then denatured with SDS-containing reducing treatment buffer (10 min/95°C), followed by resolution by SDS-PAGE and protein transfer unto nitrocellulose membrane which was incubated with streptavidin-HRP (1 in 20,000). The membrane was visualised following treatment with Luminata Forte HRP substrate.
(§4) Removal of endogenous biotinylated proteins present in the cockroach extract was performed in some experiments to improve clarity of the Western blots obtained. Neutravidin agarose beads were washed three times with 1 ml wash buffer (150 mM NaCl, 50 mM Tris, 1 mM EGTA, 1% (v/v) NP-40, pH 7.4) then resuspended in PBS (pH 7.4). These neutravidin beads were then used to bind and remove (pre-clear) endogenous biotinylated proteins present in the cockroach extract. This involved rotation of the bead-cockroach extract mix at 4°C for 30 min followed by centrifugation to enable collection of the pre-cleared supernatant fraction. The bead fraction containing bound endogenous biotinylated proteins from cockroach extract was discarded. The supernatant was then probed with NAP858 (50 μM) (±Cbz-Arg^P(OPh)2), for 30 min, at 37°C, followed by addition of freshly washed neutravidin agarose beads. […]

A further assay deals with T4, thrombin (Homo sapiens, UniProt P00734).
T4 construct: purchased R and D Systems
Kind of assay: Activity-based probe labelling of thrombin. The class given is binding. The settings on record: 30 min, 37°C; heavy chain 31 kDa. As to the method: as §2

The test system of assay [5] is trypsin-like proteases in German cockroach extract. Kind of assay: ABP of German cockroach extract. The class given is binding, Blattella germanica. The settings on record: probe 50 μM, 30 min, 37°C. The method, then:
as §3, §4

A value given as a limit tells only on which side of the number the result lay.

T3 sequence (O60235 187-418 limits assumed): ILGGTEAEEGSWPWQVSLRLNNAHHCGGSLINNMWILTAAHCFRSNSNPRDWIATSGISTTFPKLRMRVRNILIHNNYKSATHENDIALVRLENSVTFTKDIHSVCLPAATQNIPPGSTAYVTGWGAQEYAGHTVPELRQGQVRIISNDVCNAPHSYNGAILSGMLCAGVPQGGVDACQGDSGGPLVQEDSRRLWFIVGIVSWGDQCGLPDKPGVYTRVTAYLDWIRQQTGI
T3 sequence (O60235 44-186 partner limits assumed): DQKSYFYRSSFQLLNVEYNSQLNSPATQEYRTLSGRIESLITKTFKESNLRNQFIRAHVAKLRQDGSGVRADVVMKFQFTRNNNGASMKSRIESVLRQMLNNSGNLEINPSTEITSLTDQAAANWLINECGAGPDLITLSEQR

`N=C(N)NCCCN(CC(=O)NCC(=O)NCC(=O)NCCCOCCOCCOCCCNC(=O)CCCC[C@@H]1SC[C@@H]2NC(=O)N[C@@H]21)C(=O)ON1C(=O)CCC1=O` [NAP858]: the “selectivity of action for trypsin” value in the assay with trypsin [1] is “pronounced selectivity of action in inhibiting trypsin”. For the same compound, the “inhibition of chymotrypsin relative to controls” value with chymotrypsin is under 10%. Further, the inhibition at 50 µM on neutrophil elastase was under 10%. Moreover, the labelling of matriptase result at matriptase was “does indeed function as an AP for both proteases”. Moreover, the labelling of trypsin result in the assay with trypsin [2] is “labelling of a single protein band corresponding to the correct molecular mass of trypsin”. Moreover, in assay [3], the “labelling of HAT” value is given as “does indeed function as an AP for both proteases”. Further, the Ki at human trypsin (50 μM Cbz-Gly-Gly-Arg-AMC, read-out: Ki) is 226 nM. In addition, the k3 at human trypsin (first-order rate constant) is reported as 0.473 (±0.101) min^−1. Moreover, the k3/Ki at human trypsin (second-order rate constant) is listed as 2.06 (±0.884) x 10^6 M^−1 min^−1. For the same compound, the “bands detected in American cockroach extract” value in [4] was “single, intense band with an apparent molecular mass of 25 kDa”. For the same compound, on thrombin, the labelling of thrombin result is “can act as an AP for thrombin”. Moreover, in assay [5], the “bands detected in B. germanica extract” value is “close doublet of protein bands of similar molecular mass (≈25 kDa)”.

The inhibition is the share of the control response that was lost under treatment. The term Ki denotes a measure of affinity in units of concentration, obtained from inhibition or displacement.

The values are drawn from publication PMC9068901, “Novel Inhibitors and Activity-Based Probes Targeting Trypsin-Like Serine Proteases” (Frontiers in Chemistry, 2022).
